Source: patent USRE48842E1, “Pyrimido-pyrrolo-oxazine-dione compound inhibitors of the cystic fibrosis transmembrane conductance regulator protein and uses therefor” (The Regents of the University of California, priority 2011, dated 2021)
pIC50: −log10 of the molar value. Where two headings read alike, the source gives them in different places.

Assays:
E13.5 embryonic kidneys [1] = test: Embryonic kidney organ culture model of PKD (8-Br-cAMP-induced cyst growth); type: cell-based, mouse
Protocol: Embryonic Organ Culture Model of PKD—Mouse embryos were obtained at embryonic day 13.5 (E13.5). Metanephroi were dissected and placed on transparent Falcon […] porous cell culture inserts as described (see, e.g., Tradtrantip et al., J. Med. Chem. 2009, supra). To the culture inserts was added DMEM/Ham's F-12 nutrient medium supplemented with 2 mM L-glutamine, 10 mM HEPES, 5 μg/mL insulin, 5 μg/mL transferrin, 2.8 nM selenium, 25 ng/ml prostaglandin E, 32 pg/ml T3, 250 U/ml penicillin, and 250 μg/ml streptomycin. Kidneys were maintained in a 37° C. humidified CO2 incubator for up to 8 days. Culture medium containing 100 μM 8-Br-cAMP, with or without test compound, was replaced (in the lower chamber) every 12 h. Kidneys were photographed using a Nikon inverted microscope (Nikon TE 2000-S) equipped with 2× objective lens, 520 nm bandpass filter, and high-resolution CCD camera. Percentage cyst area was calculated as total cyst area divided by total kidney area.
An established embryonic ex vivo kidney organ culture model of PKD was used to test BPO-27 (racemic mixture of R and S forms) efficacy in reducing cAMP agonist-induced renal cystogenesis (see Example 30). […]

[2] = In vitro metabolism in hepatic microsomes (LC/MS); type: in vitro ADME, rat; settings: for compound disappearance (loss) in hepatic microsomes: 30 min, 37° C.
Protocol: (§1) In Vitro Metabolism in Hepatic Microsomes—A compound of structure (I) was incubated for specified times at 37° C. with rat liver microsomes (e.g., 1 mg protein/ml; Sigma-Aldrich, St. Louis, Mo.) in potassium phosphate buffer (100 mM) containing NADPH (0 or 1 mM). The mixture was then chilled on ice, and 0.5 ml of ice-cold ethyl acetate was added. Samples were centrifuged for 15 min at 3,000 rpm, and the supernatant was evaporated to dryness under nitrogen. The residue was dissolved in 150 μl mobile phase (acetonitrile:water 3:1, containing 0.1% formic acid) for LC/MS analysis. Reverse-phase HPLC separations were carried out using a Waters C18 column (2.1×100 mm, […]) equipped with a solvent delivery system (Waters model 2690, Milford, Mass.). The solvent system consisted of a linear gradient from 5 to 95% acetonitrile run over 16 min (0.2 mL/min flow rate). Mass spectra were acquired on an Alliance HT 2790+ZQ mass spectrometer using negative ion detection.
as §1, with “Liquid Chromatography/Mass Spectrometry—Compounds (each at 5 μM) were” for “In Vitro Metabolism in Hepatic Microsomes—A compound of structure (I) was”, “(1” for “(e.g., 1”, “150” for “150 μl”, “detection, scanning from 150 to 1500 Da. The electrospray ion source parameters were as follows: capillary voltage 3.5 kV (positive ion mode), cone voltage 37 V, source temperature 120° C., desolvation temperature 250° C., cone gas flow 25 L/h, and dessolvation gas flow 350 L/h.” for “detection.”
PPQ-102 is a small-molecule inhibitor of CFTR chloride conductance with efficacy in preventing and reversing cyst formation in an organ culture model of PKD (see, e.g., Tradtrantip et al., J. Med. Chem. 2009, supra; Int'l Patent Appl. Publication No. WO 2011/019737). Preliminary analysis of the metabolic stability and aqueous solubility of PPQ-102, indicated poorer metabolic stability and lower water solubility (˜2 μM in albumin-free saline) than desired for optimal drugability. In vitro metabolic stability was determined by compound incubation with hepatic microsomes at 37° C. for specified times in the absence vs. presence of NADPH, following by LC/MS analysis. Shown in FIG. 6A is PPQ-102 disappearance in hepatic microsomes in the presence of NADPH, with ˜60% disappearance in 30 min.

CFTR = CFTR (Homo sapiens, UniProt P13569); settings: literature values; read-out: IC50 for CFTR inhibition; cited from earlier work
Sequence of CFTR (P13569 whole entry, species assumed): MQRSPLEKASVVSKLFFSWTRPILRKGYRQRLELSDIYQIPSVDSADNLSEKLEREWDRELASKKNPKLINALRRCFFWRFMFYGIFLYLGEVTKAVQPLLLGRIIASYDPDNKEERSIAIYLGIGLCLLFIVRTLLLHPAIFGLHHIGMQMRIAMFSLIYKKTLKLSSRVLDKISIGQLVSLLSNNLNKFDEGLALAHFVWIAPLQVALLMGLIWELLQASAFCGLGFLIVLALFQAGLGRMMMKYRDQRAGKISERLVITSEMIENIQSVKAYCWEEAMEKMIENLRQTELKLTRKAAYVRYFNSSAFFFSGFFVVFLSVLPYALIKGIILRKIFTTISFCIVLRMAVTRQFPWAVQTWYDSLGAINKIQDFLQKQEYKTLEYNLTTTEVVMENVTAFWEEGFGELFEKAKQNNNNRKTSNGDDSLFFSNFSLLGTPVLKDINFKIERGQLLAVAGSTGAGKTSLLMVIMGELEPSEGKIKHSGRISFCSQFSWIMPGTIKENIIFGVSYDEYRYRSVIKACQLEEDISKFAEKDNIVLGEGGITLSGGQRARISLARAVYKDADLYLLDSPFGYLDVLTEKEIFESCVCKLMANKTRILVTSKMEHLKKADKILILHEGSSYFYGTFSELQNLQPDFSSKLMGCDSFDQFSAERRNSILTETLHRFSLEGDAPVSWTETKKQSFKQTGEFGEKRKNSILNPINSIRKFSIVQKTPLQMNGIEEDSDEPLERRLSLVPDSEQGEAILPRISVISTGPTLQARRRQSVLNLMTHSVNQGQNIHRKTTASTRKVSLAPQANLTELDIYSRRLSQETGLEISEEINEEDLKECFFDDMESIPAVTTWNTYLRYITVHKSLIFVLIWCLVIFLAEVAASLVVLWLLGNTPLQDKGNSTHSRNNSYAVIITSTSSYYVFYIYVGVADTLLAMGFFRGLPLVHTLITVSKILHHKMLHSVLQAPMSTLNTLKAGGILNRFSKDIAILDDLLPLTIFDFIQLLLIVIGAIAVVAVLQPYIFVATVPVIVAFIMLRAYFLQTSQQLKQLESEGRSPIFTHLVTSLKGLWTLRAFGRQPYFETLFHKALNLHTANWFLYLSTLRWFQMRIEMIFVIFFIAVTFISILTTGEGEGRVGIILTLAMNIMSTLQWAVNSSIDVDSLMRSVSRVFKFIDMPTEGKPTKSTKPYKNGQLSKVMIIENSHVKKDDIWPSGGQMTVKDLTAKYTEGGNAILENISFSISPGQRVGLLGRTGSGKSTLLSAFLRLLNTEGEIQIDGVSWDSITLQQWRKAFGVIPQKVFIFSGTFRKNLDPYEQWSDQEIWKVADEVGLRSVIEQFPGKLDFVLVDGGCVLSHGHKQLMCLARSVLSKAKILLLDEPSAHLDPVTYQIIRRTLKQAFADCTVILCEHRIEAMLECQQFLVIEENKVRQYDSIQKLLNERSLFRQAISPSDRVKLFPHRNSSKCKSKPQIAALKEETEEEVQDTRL

E13.5 embryonic kidneys [3] = settings: from Tradtrantip et al., J. Med. Chem. 2009; read-out: IC50 for inhibition of cyst growth; cited from earlier work

Row | SMILES | pIC50 (E13.5 embryonic kidneys [1]; Mus musculus, 100 μM 8-Br-cAMP, racemic mixture, read-out: IC50 for inhibition of cyst growth (percentage area occupied by cysts)) | cyst growth in 8-Br-cAMP-treated kidney (in words) (E13.5 embryonic kidneys [1]; compound in culture medium, 0.1 or 1 μM) | compound disappearance (loss) in hepatic microsomes ([2]; in the presence of NADPH) [%] | metabolic stability in hepatic microsomes (in words) ([2]; in the presence of NADPH) | pIC50 (CFTR) | pIC50 (E13.5 embryonic kidneys [3]) | compound metabolized in hepatic microsomes ([2]; 4 h, in the presence of NADPH) [%] | compound loss in hepatic microsomes ([2]; in the absence of NADPH)
1 | Cn1c(=O)c2c(-c3ccccc3)n3c(c2n(C)c1=O)C(c1ccc(Br)o1)Oc1ccc(C(=O)O)cc1-3 (racemic) [BPO-27, 6-(5-Bromofuran-2-yl)-7,9-dimethyl-8,10-dioxo-11-phenyl-7,8,9,10-tetrahydro-6H-benzo[b]pyrimido[4′,5′:3,4]pyrrolo[1,2-d][1,4]oxazine-2-carboxylic acid] | ~7.00 | remarkably reduced | < 5 | excellent stability | – | – | – | –
2 | Cc1ccc(C2Nc3ccccc3-n3c(-c4ccccc4)c4c(=O)n(C)c(=O)n(C)c4c32)o1 (stereo not drawn) [PPQ-102, 7,9-Dimethyl-6-(5-methylfuran-2-yl)-11-phenyl-5,6-dihydropyrimido[4′,5′-3,4]pyrrolo[1,2-a]quinoxaline-8,10-(7H,9H)-dione, reference compound] | – | – | ~60 | – | ~7.05 | < 6.30 | > 75 | No loss
